Test results: patent US9453062B2, “Glucose dependent insulinotropic polypeptide analogs, pharmaceutical compositions and use thereof” (Beijing Hanmi Pharmaceutical Co., Ltd., priority 2011, dated 2016)
Where a SMILES comes first, the peptide text is derived from it. [ ]: non-standard residue; d: D form. Aib = CC(C)(N)C(=O)O

Tests used:
[1] = molecular target: T1, hGIPR (Homo sapiens, UniProt P48546); assay: hGIPR-mediated cAMP induction assay in CHO cell line; assay type: cell-based; conditions: Table 3; for EC50: CHO hGIPR cells; for GIP Receptor Relative Potency: against native GIP
T1 construct: expressed in transfected cells; host or cells: CHO
T1 sequence (P48546 22-466): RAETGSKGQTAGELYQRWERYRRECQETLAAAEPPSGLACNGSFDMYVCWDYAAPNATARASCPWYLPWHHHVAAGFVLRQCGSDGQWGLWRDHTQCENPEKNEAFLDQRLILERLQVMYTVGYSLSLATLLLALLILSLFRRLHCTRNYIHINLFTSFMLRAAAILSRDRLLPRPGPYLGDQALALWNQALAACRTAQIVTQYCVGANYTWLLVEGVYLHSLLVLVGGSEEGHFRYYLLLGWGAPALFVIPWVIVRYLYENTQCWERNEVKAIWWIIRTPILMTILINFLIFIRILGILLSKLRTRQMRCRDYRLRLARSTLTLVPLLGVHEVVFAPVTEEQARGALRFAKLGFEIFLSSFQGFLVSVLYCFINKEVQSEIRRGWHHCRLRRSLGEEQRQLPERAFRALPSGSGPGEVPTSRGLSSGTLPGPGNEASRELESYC

[2] = molecular target: T2, hGLP-1R (Homo sapiens, UniProt P43220); assay: hGLP-1R-mediated cAMP induction assay in CHO cell line; assay type: cell-based; conditions: Table 3; for EC50: CHO hGLP1R cells; for GLP-1 Receptor Relative Potency: against native GLP-1;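 as to all read-outs here: CHO cells expressing human GLP-1R, treated 30 min at 37 °C, intracellular cAMP measured by competitive fluorescent immunoassay and converted via a cAMP standard curve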
T2 construct: expressed in transfected cells; host or cells: CHO
T2 sequence (P43220 24-463): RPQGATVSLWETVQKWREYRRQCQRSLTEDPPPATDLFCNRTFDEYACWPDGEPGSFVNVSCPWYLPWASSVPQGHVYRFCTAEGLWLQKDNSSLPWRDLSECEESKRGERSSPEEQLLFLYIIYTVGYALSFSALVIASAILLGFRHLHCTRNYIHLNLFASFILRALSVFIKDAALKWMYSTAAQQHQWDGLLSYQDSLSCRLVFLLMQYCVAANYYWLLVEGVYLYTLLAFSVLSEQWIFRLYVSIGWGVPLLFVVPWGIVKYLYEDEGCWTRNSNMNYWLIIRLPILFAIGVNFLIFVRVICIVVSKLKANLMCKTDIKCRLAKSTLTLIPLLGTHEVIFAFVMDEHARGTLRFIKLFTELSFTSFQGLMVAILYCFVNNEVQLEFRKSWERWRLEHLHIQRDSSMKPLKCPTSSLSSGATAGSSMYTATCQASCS

Row | SMILES | EC50 [1] [nM] | GIP Receptor Relative Potency [1] | EC50 [2] [nM] | GLP-1 Receptor Relative Potency [2]
1 | CC[C@H](C)[C@H](NC(=O)[C@H](CO)NC(=O)[C@H](Cc1ccc(O)cc1)NC(=O)[C@H](CC(=O)O)NC(=O)[C@H](CO)NC(=O)[C@@H](NC(=O)[C@H](Cc1ccccc1)NC(=O)[C@@H](NC(=O)CNC(=O)[C@H](CCC(=O)O)NC(=O)C(C)(C)NC(=O)[C@@H](N)Cc1ccc(O)cc1)[C@@H](C)O)[C@@H](C)O)C(=O)N[C@@H](Cc1ccc(O)cc1)C(=O)N[C@@H](CCSC)C(=O)N[C@@H](CCC(=O)O)C(=O)N[C@@H](CCCCN)C(=O)N[C@@H](CCC(=O)O)C(=O)N[C@@H](C)C(=O)N[C@H](C(=O)N[C@@H](CCCNC(=N)N)C(=O)N[C@@H](CCC(=O)O)C(=O)N[C@@H](Cc1ccccc1)C(=O)N[C@H](C(=O)N[C@@H](CCC(=O)O)C(=O)N[C@@H](Cc1c[nH]c2ccccc12)C(=O)N[C@@H](CC(C)C)C(=O)N[C@H](C(=O)N[C@@H](CCCCN)C(=O)NCC(N)=O)C(C)C)[C@@H](C)CC)C(C)C [Compound 054-1] (H-Y[Aib]EGTFTSDYSIYMEKEAVREFIEWLVKG-NH2) | 0.27 | 77.7 | 2.99 | 
2 | CCCCCCCCCCCCCCCC(=O)N[C@@H](CCC(=O)NCCCC[C@H](NC(=O)[C@H](CO)NC(=O)[C@@H]1CCCN1C(=O)[C@@H]1CCCN1C(=O)[C@@H]1CCCN1C(=O)[C@H](C)NC(=O)CNC(=O)[C@H](CO)NC(=O)[C@H](CO)NC(=O)[C@@H]1CCCN1C(=O)CNC(=O)CNC(=O)[C@H](CCCCN)NC(=O)[C@@H](NC(=O)[C@H](CC(C)C)NC(=O)[C@H](Cc1c[nH]c2ccccc12)NC(=O)[C@H](C)NC(=O)[C@@H](NC(=O)[C@H](Cc1ccccc1)NC(=O)[C@H](CCC(=O)O)NC(=O)[C@H](CCCNC(=N)N)NC(=O)[C@@H](NC(=O)[C@H](C)NC(=O)[C@H](CCC(=O)O)NC(=O)[C@H](CCCCN)NC(=O)[C@H](CCC(=O)O)NC(=O)[C@H](CCSC)NC(=O)[C@H](Cc1ccc(O)cc1)NC(=O)[C@@H](NC(=O)[C@H](CO)NC(=O)[C@H](Cc1ccc(O)cc1)NC(=O)[C@H](CC(=O)O)NC(=O)[C@H](CO)NC(=O)[C@@H](NC(=O)[C@H](Cc1ccccc1)NC(=O)[C@@H](NC(=O)CNC(=O)[C@H](CCC(=O)O)NC(=O)C(C)(C)NC(=O)[C@@H](N)Cc1ccc(O)cc1)[C@@H](C)O)[C@@H](C)O)[C@@H](C)CC)C(C)C)[C@@H](C)CC)C(C)C)C(N)=O)C(=O)O [Compound 090] | 0.009 | 1311 | 0.188 | 568.6
3 | CC[C@H](C)[C@H](NC(=O)[C@H](Cc1ccccc1)NC(=O)[C@H](CCC(=O)O)NC(=O)[C@H](CCCNC(=N)N)NC(=O)[C@@H](NC(=O)[C@H](C)NC(=O)[C@H](CCC(=O)O)NC(=O)[C@H](CCCCN)NC(=O)[C@H](CCC(=O)O)NC(=O)[C@H](CCSC)NC(=O)[C@H](Cc1ccc(O)cc1)NC(=O)[C@@H](NC(=O)[C@H](CO)NC(=O)[C@H](Cc1ccc(O)cc1)NC(=O)[C@H](CC(=O)O)NC(=O)[C@H](CO)NC(=O)[C@@H](NC(=O)[C@H](Cc1ccccc1)NC(=O)[C@@H](NC(=O)CNC(=O)[C@H](CCC(=O)O)NC(=O)C(C)(C)NC(=O)[C@@H](N)Cc1ccc(O)cc1)[C@@H](C)O)[C@@H](C)O)[C@@H](C)CC)C(C)C)C(=O)N[C@@H](C)C(=O)N[C@@H](Cc1c[nH]c2ccccc12)C(=O)N[C@@H](CC(C)C)C(=O)N[C@H](C(=O)N[C@@H](CCCCN)C(=O)NCC(=O)NCC(=O)N1CCC[C@H]1C(=O)N[C@@H](CO)C(=O)N[C@@H](CO)C(=O)NCC(=O)N[C@@H](C)C(=O)N1CCC[C@H]1C(=O)N1CCC[C@H]1C(=O)N1CCC[C@H]1C(=O)N[C@@H](CO)C(N)=O)C(C)C [Compound 051] (H-Y[Aib]EGTFTSDYSIYMEKEAVREFIAWLVKGGPSSGAPPPS-NH2; N-terminus assumed) | 0.19 | 89.5 | 0.599 | 159.8
